For 22 compounds, IC50 results are on record in ChEMBL document CHEMBL3436046, “Predictive model for L-type channel inhibition: multichannel block in QT prolongation risk assessment” (J Appl Toxicol, 2012).

For assay [1], the target named is T1, Voltage-dependent L-type calcium channel subunit alpha-1C (Cavia porcellus, UniProt O35505). Briefly: (§1) Inhibition of L-type calcium channel measured using whole-cell patch clamp in guinea pig ventricular myocytes. The format is functional, cell-based, Heart, Ventricular myocyte. Further details: ca sol conc 2 mM, temp 22-26 C.
T1 sequence (O35505 whole entry): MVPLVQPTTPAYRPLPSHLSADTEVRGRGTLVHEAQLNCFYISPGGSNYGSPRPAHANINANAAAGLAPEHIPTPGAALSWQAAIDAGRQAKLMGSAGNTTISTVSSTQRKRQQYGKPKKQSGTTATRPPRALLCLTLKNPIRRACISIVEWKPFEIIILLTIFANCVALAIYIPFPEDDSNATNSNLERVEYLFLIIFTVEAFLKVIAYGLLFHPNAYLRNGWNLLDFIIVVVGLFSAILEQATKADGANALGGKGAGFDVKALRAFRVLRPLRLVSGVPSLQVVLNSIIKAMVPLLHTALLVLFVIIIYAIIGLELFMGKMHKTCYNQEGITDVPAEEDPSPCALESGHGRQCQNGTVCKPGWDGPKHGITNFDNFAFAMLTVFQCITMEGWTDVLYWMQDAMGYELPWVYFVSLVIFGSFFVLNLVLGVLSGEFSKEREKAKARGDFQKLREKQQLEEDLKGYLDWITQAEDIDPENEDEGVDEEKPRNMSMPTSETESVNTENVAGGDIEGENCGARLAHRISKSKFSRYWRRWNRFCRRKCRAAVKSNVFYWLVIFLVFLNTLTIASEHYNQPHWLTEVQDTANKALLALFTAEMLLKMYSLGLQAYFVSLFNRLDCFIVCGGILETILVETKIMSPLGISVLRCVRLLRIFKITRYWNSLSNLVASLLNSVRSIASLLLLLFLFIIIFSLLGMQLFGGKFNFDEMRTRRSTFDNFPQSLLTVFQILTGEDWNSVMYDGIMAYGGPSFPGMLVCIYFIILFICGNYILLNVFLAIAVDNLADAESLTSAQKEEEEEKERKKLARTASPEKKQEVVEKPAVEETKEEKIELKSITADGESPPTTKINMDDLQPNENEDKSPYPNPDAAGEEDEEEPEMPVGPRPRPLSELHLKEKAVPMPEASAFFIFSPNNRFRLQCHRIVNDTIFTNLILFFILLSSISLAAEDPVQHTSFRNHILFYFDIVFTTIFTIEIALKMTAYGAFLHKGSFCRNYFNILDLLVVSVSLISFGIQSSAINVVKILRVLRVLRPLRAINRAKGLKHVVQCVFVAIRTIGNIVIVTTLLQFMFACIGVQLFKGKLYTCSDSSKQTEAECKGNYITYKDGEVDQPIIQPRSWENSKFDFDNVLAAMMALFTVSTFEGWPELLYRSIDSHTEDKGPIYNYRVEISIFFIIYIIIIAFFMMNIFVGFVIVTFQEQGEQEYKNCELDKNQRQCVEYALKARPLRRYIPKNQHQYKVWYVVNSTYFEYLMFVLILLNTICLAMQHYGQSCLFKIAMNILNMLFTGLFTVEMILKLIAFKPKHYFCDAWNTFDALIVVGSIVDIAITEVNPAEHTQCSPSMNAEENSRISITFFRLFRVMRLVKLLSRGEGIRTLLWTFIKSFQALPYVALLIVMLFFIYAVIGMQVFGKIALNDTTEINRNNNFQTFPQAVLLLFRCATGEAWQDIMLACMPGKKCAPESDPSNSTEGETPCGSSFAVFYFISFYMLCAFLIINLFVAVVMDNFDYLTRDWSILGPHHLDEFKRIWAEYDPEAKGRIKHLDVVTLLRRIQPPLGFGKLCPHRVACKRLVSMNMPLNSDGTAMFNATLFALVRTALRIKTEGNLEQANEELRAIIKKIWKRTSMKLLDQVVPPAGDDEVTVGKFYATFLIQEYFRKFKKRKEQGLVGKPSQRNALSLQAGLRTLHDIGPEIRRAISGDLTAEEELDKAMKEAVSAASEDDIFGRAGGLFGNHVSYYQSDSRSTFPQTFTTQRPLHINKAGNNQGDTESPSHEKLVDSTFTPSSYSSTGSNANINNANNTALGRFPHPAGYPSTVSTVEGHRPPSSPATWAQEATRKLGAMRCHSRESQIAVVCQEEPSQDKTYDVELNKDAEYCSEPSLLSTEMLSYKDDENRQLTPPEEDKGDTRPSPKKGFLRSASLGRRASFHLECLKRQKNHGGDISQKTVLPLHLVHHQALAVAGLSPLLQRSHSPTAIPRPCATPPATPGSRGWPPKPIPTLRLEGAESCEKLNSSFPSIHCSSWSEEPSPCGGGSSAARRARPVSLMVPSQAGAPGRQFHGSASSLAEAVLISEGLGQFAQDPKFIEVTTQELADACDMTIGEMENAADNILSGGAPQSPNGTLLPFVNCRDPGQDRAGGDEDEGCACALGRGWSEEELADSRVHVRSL
Assay [2] addresses T2, Voltage-dependent L-type calcium channel subunit alpha-1C (Rattus norvegicus, UniProt P22002). The experiment in a line: (§2) Inhibition of L-type calcium channel measured using whole-cell patch clamp in rat ventricular myocytes. It is filed as functional, cell-based, Heart, Ventricular myocyte. Details: ca sol conc 0 mM, temp room. Background: Patch clamp records ionic current or voltage across a cell membrane.

Assay [3] has as its target T3, Voltage-dependent L-type calcium channel subunit alpha-1C (Homo sapiens, UniProt Q13936). Briefly: (§3) Inhibition of L-type calcium channel measured using […] kidney cells heterologically expressing alpha-1C subunit. Further details: ca sol conc 0 mM, temp 21-24 C. It is filed as functional, cell-based, HEK293.
The target in assay [4] is T2, Voltage-dependent L-type calcium channel subunit alpha-1C. The assay is described as §2. The format is functional, cell-based, Heart, Ventricular myocyte. Further details: ca sol conc 1 mM, temp 20-24 C.
For assay [5] the target is unchanged. Described as §2. It is filed as functional, cell-based, Heart, Ventricular myocyte. Further details: ca sol conc 2 mM, temp room.
Assay [6] shares this target. The assay is described as §2. The format is functional, cell-based, Heart, Ventricular myocyte. Further details: ca sol conc 1 mM, temp 21-23 C.
Assay [7] shares this target. Described as §2. The format is functional, cell-based, Heart, Ventricular myocyte. Details: ca sol conc 1 mM, temp 21-23 C. The source holds these as a separate data set.
Assay [8] deals with T3, Voltage-dependent L-type calcium channel subunit alpha-1C. Described as §3. It is filed as functional, cell-based, HEK293. Details: ca sol conc 0 mM, temp 21-24 C. This is another data set of the same source.
Assay [9] deals with T1, Voltage-dependent L-type calcium channel subunit alpha-1C. The description is as §1. The format is functional, cell-based, Heart, Ventricular myocyte. Further details: ca sol conc 1 mM, temp 20 C.
The target is the same in assay [10]. The assay is described as §1. It is filed as functional, cell-based, Heart, Ventricular myocyte. Details: ca sol conc 2 mM, temp room.
Assay [11] shares this target. The assay is described as §1. The format is functional, cell-based, Heart, Ventricular myocyte. Details: ca sol conc 2 mM, temp 35.5-36.5 C.
The target in assay [12] is T3, Voltage-dependent L-type calcium channel subunit alpha-1C. Described as §3. It is filed as functional, cell-based, HEK293. Details: ca sol conc 0 mM, temp 20-25 C.
For assay [13] the target is unchanged. Briefly: (§4) Inhibition of L-type calcium channel measured using 2-electrode voltage-clamp in Xenopus oocyte heterologically expressing alpha-1C subunit. It is filed as functional, cell-based. Details: ca sol conc 0 mM, temp room.
Assay [14] has the same target. Described as §4. It is filed as functional, cell-based. Further details: ca sol conc 0 mM, temp room. The source holds these as a separate data set.
In assay [15] the target is T1, Voltage-dependent L-type calcium channel subunit alpha-1C. Described as §1. It is filed as functional, cell-based, Heart, Ventricular myocyte. Details: ca sol conc 1.8 mM, temp 36-37 C.
Assay [16] concerns the target T3, Voltage-dependent L-type calcium channel subunit alpha-1C. The description is as §3. Further details: ca sol conc 0 mM, temp room. The format is functional, cell-based, HEK293.
Assay [17] shares this target. Described as §3. The format is functional, cell-based, HEK293. Further details: ca sol conc 0 mM, temp room. This is another data set of the same source.
Assay [18] concerns the target T1, Voltage-dependent L-type calcium channel subunit alpha-1C. The assay is described as §1. Details: ca sol conc 1.8 mM, temp room. It is filed as functional, cell-based, Heart, Ventricular myocyte.
Assay [19] concerns the target T3, Voltage-dependent L-type calcium channel subunit alpha-1C. The experiment in a line: Inhibition of L-type calcium channel measured using […] ovary cells heterologically expressing alpha-1C subunit. The format is functional, cell-based, Cricetulus griseus, CHO. Further details: ca sol conc 0 mM, temp room.
Assay [20] addresses T1, Voltage-dependent L-type calcium channel subunit alpha-1C. Described as §1. It is filed as functional, cell-based, Heart, Ventricular myocyte. Details: ca sol conc 0 mM, temp 20-25 C.
The target is the same in assay [21]. The assay is described as §1. The format is functional, cell-based, Heart, Ventricular myocyte. Further details: ca sol conc 0 mM, temp 36 C.
Assay [22] addresses T2, Voltage-dependent L-type calcium channel subunit alpha-1C. The description is as §2. The format is functional, cell-based, Heart, Ventricular myocyte. Further details: ca sol conc 1.8 mM, temp room.
In assay [23] the target is T1, Voltage-dependent L-type calcium channel subunit alpha-1C. The description is as §1. It is filed as functional, cell-based, Heart, Ventricular myocyte. Further details: ca sol conc 2.5 mM, temp room.
The target in assay [24] is T2, Voltage-dependent L-type calcium channel subunit alpha-1C. Described as §2. Further details: ca sol conc 1.8 mM, temp 22-24 C. The format is functional, cell-based, Heart, Ventricular myocyte.
For assay [25] the target is unchanged. Described as §2. The format is functional, cell-based, Heart, Ventricular myocyte. Details: ca sol conc 2 mM, temp 22-23 C.

T2 sequence (P22002 whole entry): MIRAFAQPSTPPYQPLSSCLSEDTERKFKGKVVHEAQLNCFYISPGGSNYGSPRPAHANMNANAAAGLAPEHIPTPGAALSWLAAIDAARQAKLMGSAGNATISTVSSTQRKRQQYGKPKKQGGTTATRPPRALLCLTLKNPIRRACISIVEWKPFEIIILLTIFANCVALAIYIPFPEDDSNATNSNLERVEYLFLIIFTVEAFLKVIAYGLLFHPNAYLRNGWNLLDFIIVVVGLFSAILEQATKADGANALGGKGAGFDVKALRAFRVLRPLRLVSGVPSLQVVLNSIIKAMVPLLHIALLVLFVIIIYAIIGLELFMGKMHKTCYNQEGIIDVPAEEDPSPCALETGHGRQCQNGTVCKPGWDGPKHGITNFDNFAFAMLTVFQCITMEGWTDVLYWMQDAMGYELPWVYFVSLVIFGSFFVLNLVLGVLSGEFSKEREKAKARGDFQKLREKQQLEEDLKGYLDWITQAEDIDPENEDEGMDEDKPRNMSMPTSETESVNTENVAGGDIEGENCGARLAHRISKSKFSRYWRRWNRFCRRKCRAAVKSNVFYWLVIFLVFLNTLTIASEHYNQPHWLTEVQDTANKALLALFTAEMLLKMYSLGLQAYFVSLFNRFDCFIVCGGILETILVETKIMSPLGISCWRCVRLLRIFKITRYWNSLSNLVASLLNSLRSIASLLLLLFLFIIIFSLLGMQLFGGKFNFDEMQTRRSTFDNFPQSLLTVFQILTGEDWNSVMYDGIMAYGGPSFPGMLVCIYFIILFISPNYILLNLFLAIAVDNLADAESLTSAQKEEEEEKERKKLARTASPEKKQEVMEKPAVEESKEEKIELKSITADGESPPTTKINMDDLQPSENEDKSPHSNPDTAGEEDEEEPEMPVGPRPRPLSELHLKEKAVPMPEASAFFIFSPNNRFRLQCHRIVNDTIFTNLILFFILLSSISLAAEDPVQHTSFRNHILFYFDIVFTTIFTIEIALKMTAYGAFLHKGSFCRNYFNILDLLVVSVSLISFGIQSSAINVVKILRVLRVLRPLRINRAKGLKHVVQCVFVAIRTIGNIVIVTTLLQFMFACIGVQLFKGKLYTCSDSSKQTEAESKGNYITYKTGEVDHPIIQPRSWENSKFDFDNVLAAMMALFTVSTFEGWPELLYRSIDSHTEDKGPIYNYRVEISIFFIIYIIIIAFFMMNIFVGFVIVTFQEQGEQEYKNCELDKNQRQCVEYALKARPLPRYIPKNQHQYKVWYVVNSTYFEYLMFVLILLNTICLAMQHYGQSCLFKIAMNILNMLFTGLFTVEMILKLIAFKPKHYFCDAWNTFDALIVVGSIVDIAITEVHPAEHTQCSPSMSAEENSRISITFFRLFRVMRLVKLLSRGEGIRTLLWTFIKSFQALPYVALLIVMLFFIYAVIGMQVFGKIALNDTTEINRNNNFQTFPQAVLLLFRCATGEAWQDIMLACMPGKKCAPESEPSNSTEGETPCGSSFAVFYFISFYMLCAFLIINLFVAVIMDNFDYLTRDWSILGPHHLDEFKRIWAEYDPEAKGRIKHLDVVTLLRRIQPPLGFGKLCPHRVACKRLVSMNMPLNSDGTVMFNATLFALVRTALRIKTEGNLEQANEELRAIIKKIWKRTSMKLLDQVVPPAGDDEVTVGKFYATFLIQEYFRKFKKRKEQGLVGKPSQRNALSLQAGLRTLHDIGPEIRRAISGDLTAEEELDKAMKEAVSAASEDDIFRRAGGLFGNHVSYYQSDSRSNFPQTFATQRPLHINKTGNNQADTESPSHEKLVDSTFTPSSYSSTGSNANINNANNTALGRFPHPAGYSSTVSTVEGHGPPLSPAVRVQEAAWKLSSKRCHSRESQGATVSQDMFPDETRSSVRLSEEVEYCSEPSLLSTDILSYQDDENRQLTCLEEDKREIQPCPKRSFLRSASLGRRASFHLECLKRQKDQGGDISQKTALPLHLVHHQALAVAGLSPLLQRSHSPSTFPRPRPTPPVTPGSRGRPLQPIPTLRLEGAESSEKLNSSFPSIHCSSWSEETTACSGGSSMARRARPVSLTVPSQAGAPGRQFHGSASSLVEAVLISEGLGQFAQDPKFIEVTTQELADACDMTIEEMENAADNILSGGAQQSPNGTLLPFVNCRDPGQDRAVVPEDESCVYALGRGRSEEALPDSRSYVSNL

For `CC(N)CCCC(C)(C)O` (centres undefined) [HEPTAMINOL], the IC50 in assay [1] is 15.3 µM.

Consider `O=C(O)Cc1ccccc1Nc1c(Cl)cccc1Cl` [DICLOFENAC], for which the IC50 in [2] was 12.9 µM.

For the compound `CC(C)Cn1c(=O)n(C)c(=O)c2[nH]cnc21` [ISOBUTYLMETHYLXANTHINE], the IC50 in [3] was 466000 nM.

`CN(C)CCN1C(=O)c2ccccc2N(C)c2ccccc21` [DIBENZEPIN]: the IC50 in assay [4] came out at 364 µM.

For the compound `CN(C)CCC=C1c2ccccc2CCc2ccccc21` [AMITRIPTYLINE], the results for the IC50 in assay [4] and in assay [5] were 23.2 µM and 3.75 µM, respectively.

As to `COc1ccc(CCN(C)CCCOc2ccc(S(=O)(=O)c3c(C(C)C)cn4ccccc34)cc2)cc1OC` [FANTOFARONE], the IC50 amounted to 22 nM in [6] and 9 µM in assay [7].

In the case of `C[C@]12CC[C@H]3[C@@H](CCC4=CC(=O)CC[C@@]43C)[C@@H]1CC[C@@H]2O` [TESTOSTERONE], the IC50 in assay [8] stood at 38.4 nM; in [3] it was 34 nM.

For the compound `CC(NCCC(c1ccccc1)c1ccccc1)c1ccccc1` (centres undefined) [FENDILINE], the IC50 in assay [9] was 17 µM.

Turning to `COc1ccc([C@@H]2Sc3ccccc3N(CCN(C)CCc3ccc(OC)c(OC)c3)C(=O)[C@@H]2OC(C)=O)cc1`, the IC50 in assay [10] is 25.7 nM.

As for `CN1CCCC(n2nc(Cc3ccc(Cl)cc3)c3ccccc3c2=O)CC1` (centres undefined) [AZELASTINE], the IC50 in [11] came out at 20.2 µM.

Turning to `COc1ccc(CCN(C)CCCC(C#N)(c2cc(OC)c(OC)c(OC)c2)C(C)C)cc1OC` (centres undefined) [GALLOPAMIL], the IC50 in assay [12] is 17 nM.

As for `COC(=O)C1=C(C)NC(C)=C(C(=O)O[C@H]2CCN(Cc3ccccc3)C2)[C@H]1c1cccc([N+](=O)[O-])c1` [BARNIDIPINE], the figures for the IC50 in [13] and in [14] were 1200 nM and 3.1 µM, respectively.

On to `CCCC(=O)N1CCCN(c2nc(N)c3cc(OC)c(OC)cc3n2)CC1` [BUNAZOSIN], for which the half-inhibitory concentration (IC50) in assay [15] was determined as 60 µM.

For the compound `FC(F)(F)C(Cl)Br` (centres undefined) [HALOTHANE], the IC50 in assay [16] is 14.5 mM; in assay [17], 1.8 mM.

Turning to `Clc1ccccc1C(c1ccccc1)(c1ccccc1)n1ccnc1` [CLOTRIMAZOLE], the IC50 was 590 nM in assay [3] and 20 µM in assay [18].

Take `CC1=C(C(=O)OCCCCCCCCCC[N+](C)(C)C)C(c2cccc3nonc23)C(C(=O)OC(C)C)=C(C)N1` (centres undefined): the IC50 in [19] is 70 nM.

In the case of `COCCOC(=O)C1=C(C)NC(C)=C(C(=O)OC(C)C)C1c1cccc([N+](=O)[O-])c1` (centres undefined) [NIMODIPINE], the IC50 in assay [20] was determined as 300 nM.

Take `Cc1cccc(C)c1N(CCCc1cccnc1)C(=O)[C@@H](C)N`: in assay [21], the IC50 amounted to 55 µM.

As for `CCCC[N+]1(CCCC(=O)c2ccc(F)cc2)CCC(O)(c2ccc(Cl)cc2)CC1` (centres undefined), in [22], the half-inhibitory concentration (IC50) is 170 nM.

With `O=c1c(-c2ccc(O)cc2)coc2cc(O)cc(O)c12` [GENISTEIN], the IC50 in assay [23] was 20 µM; in assay [24], 11 µM.

Take `CN(C)CCCN1c2ccccc2CCc2ccc(Cl)cc21` [CLOMIPRAMINE]: the concentration for half-maximal inhibition (IC50) in assay [4] amounted to 11.6 µM.

Consider `CCN(CC)CCCC(C)Nc1c2ccc(Cl)cc2nc2ccc(OC)cc12` (centres undefined) [QUINACRINE], for which, in assay [25], the IC50 worked out at 5.2 µM.

For orientation: IC50 means the midpoint of a concentration-inhibition curve.
